Results taken from ChEMBL document CHEMBL4813934, “Investigation of Selected Flavonoid Derivatives as Potent FLT3 Inhibitors for the Potential Treatment of Acute Myeloid Leukemia” (J Nat Prod, 2021).

Key:
[1] = biological target: Receptor-type tyrosine-protein kinase FLT3 (Homo sapiens) (UniProt P36888); assay: Inhibition of recombinant His-tagged human FLT3 (564 to 958 residues) expressed in baculovirus expression system at 10 uM using tyr 02 as substrate incubated for 1 hr by Z'-LYTE assay relative to control
[2] = biological target: Receptor-type tyrosine-protein kinase FLT3 (Homo sapiens, UniProt P36888, ITD); assay: Inhibition of recombinant N-terminal GST/His6-tagged human FLT3 ITD mutant (571 to 993 residues) expressed in Sf9 insect cells incubated for 1 hr by LanthaScreen assay
[3] = biological target: Receptor-type tyrosine-protein kinase FLT3 (Homo sapiens, UniProt P36888, D835Y); assay: Inhibition of recombinant His-tagged human FLT3 D835Y mutant (564 to 958 residues) expressed in baculovirus expression system using tyr 02 as substrate incubated for 1 hr by Z'-LYTE assay
MOLM-13 = assay: Cytotoxicity against human MOLM-13 cells assessed as reduction in cell viability measured after 72 hrs by MTT assay; assay type: functional, cell-based; conditions: MOLM-13, 72 h
MV4-11 = assay: Cytotoxicity against human MV4-11 cells assessed as reduction in cell viability measured after 72 hrs by MTT assay; assay type: functional, cell-based; conditions: MV4-11, 72 h
[4] = biological target: T1, Receptor-type tyrosine-protein kinase FLT3 (Homo sapiens, UniProt P36888); assay: Inhibition of recombinant His-tagged human FLT3 (564 to 958 residues) expressed in baculovirus expression system using tyr 02 as substrate incubated for 1 hr by Z'-LYTE assay
T1 sequence (P36888 whole entry): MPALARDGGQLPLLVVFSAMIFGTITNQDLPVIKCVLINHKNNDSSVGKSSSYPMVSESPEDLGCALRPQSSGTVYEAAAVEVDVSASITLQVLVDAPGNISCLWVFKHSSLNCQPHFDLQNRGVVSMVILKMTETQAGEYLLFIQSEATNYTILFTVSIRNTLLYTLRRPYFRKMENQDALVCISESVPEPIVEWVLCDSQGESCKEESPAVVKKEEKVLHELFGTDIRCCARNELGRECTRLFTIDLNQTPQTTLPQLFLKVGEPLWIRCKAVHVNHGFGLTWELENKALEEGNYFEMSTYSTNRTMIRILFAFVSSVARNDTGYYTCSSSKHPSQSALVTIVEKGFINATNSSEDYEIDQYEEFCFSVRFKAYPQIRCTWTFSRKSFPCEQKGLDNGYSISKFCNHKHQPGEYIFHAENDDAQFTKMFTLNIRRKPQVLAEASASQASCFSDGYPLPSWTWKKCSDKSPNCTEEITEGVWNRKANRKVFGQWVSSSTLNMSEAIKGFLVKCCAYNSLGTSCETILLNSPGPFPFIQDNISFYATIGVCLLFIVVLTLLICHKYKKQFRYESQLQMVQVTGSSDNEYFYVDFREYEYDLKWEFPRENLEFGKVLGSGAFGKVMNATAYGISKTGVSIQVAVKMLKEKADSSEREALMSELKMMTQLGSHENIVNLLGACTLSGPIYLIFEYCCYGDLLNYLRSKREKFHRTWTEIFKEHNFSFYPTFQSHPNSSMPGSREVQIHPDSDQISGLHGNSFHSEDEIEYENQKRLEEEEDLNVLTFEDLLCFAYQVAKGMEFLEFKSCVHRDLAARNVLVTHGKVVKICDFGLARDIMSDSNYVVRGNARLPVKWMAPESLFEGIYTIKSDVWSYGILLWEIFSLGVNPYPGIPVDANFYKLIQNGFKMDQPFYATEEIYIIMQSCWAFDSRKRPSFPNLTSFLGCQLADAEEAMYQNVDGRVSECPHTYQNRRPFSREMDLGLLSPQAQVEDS

| inhibition [1] [%] | IC50 [4] [nM] | Compound | IC50 [2] [nM] | IC50 [3] [nM] | IC50 (MOLM-13) [nM] | IC50 (MV4-11) [nM] |
| --- | --- | --- | --- | --- | --- | --- |
| > 80 | 1100 | COc1ccc(-c2cc(=O)c3c(O)c(OC)c(OC)cc3o2)cc1O [EUPATORIN] |  |  |  |  |
| > 80 | 1700 | COc1cc(O)c2c(=O)cc(-c3ccc(O)cc3)oc2c1 [GENKWANIN] |  |  |  |  |

| Compound | inhibition [1] [%] | IC50 [4] [nM] | IC50 [2] [nM] | IC50 [3] [nM] | IC50 (MOLM-13) [nM] | IC50 (MV4-11) [nM] |
| --- | --- | --- | --- | --- | --- | --- |
| COc1ccc(-c2cc(=O)c3c(O)cc(O)cc3o2)cc1 [ACACETIN] | > 80 | 880 | 210 | 1000 | 9100 | 6800 |
